{"source": "patent US9359418B2", "about": "“Inhibitors of the T cell-specific alternative p38 activation pathway and methods of use” (The United States of America, as represented by the …, priority 2012, dated 2016)", "key": {"[1]": {"tested_on": "T cells", "experiment": "T cell proliferation after anti-CD3 and anti-CD28 stimulation", "type": "cell-based", "settings": "0.2, 0.5, 1.0, 2.0 or 4.0 μg; anti-CD3 and anti-CD28 for 2 days", "method": "FIG. 3 is a graph showing T cell proliferation in response to (11R)-71-85. T cells were purified from spleen and treated with different concentrations of (11R)-71-85 or control peptide (11R)-Ctrl. Cells were then washed and stimulated with anti-CD3 and anti-CD28 for 2 days and finally pulsed with 1 μCi [^3H]-thymidine 14 hours before harvesting. [^3H]-thymidine uptake was determined with a Wallac 1450 MicroBeta Liquid Scintillation Counter.\nThe ability of (11R)-71-85 to inhibit T cell proliferation and inflammatory cytokine production was also evaluated. T cells were purified from spleen and treated with different concentrations (0.2, 0.5, 1.0, 2.0 or 4.0 μg) of (11R)-71-85 or the control peptide (11R)-Ctrl. Cells were then washed and stimulated with anti-CD3 and anti-CD28 for 2 days and finally pulsed with 1 μCi [^3H]-thymidine 14 hours before harvesting. [^3H]-thymidine uptake was determined with a Wallac 1450 MicroBeta Liquid Scintillation Counter."}, "[2]": {"tested_on": "Irf4 mRNA", "experiment": "Irf4 mRNA in splenocytes after intraperitoneal injection", "type": "in vivo, mice", "settings": "40 μg intraperitoneally; splenocytes 4 hours after injection, anti-CD3 plus anti-CD28 24 hours; versus vehicle control", "method": "FIG. 7 is a graph showing expression of interferon regulatory factor 4 (Irf4) mRNA following in vivo treatment with (11R)-71-85. (11R)-71-85 (40 μg) or vehicle control was injected intraperitoneally into wild type mice. Four hours after injection, splenocytes were collected and stimulated with soluble anti-CD3 plus anti-CD28 for 24 hours. Irf4 mRNA expression was assessed by quantitative real time PCR.\n(11R)-71-85 (40 μg) or vehicle control was injected intraperitoneally into wild type mice. Four hours after injection, splenocytes were collected and stimulated with soluble anti-CD3 plus anti-CD28 for 24 hours. Irf4 mRNA expression was assessed by quantitative real time PCR."}, "[3]": {"tested_on": "PANC02 tumors", "experiment": "PANC02 model, tumor vascularization (CD31 staining)", "type": "in vivo", "settings": "80 μg intra-tumor every other day for 2.5 weeks; compared with control treated mice", "method": "FIG. 11 is a pair of images showing that intra-tumor injection of (11R)-71-85 reduces tumor vascularization. WT C57BL/6 mice were injected with 7.5×10^5 PANC02 cells and 16 days later were injected with 80 μg of either (11R)-71-85 or (11R)-Scrambled. Mice received intra-tumor injections every other day for 2.5 weeks. Twenty-four hours after the last injection, tumors were collected, fixed in formalin, and stained for the endothelial marker CD31, an indicator of tumor vascularization.\nTumor vascularization was also assessed in WT mice treated with (11R)-71-85. WT C57BL/6 mice were injected with 7.5×10^5 PANC02 cells. After 16 days, mice received intra-tumor injections of 80 μg of (11R)-71-85 or (11R)-Scrambled every other day for 2.5 weeks. Twenty-four hours after the last injection, tumors were collected, fixed in formalin, and stained for the endothelial marker CD31, an indicator for tumor vascularization."}}}
{"substance": "(11R)-71-85: fusion protein: 11 arginine residues added to the N-terminus of the Gadd45α 71-85 peptide (LQIHFTLIQAFCCEN; N-terminal 11 arginine; UniProt P24522 71-85, looked up, fragment)", "values": [{"measurement": "T cell proliferation ([3H]-thymidine uptake) in response to TCR stimulation", "setting": "[1]", "value": "dose-dependent decrease"}, {"measurement": "Irf4 mRNA expression", "setting": "[2]", "value": "significantly inhibited"}, {"measurement": "CD31 staining (tumor vascularization)", "setting": "[3]", "value": "significant reduction"}]}
